The values below come from PubChem BioAssay (NCI).

The structures appear in SMILES notation.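 Dose response: 5 concentrations. Exposure: 48 h. Format: 96-well plates. Endpoint: linear interpolation; highest concentration if not reached. Abbreviation: GI50, concentration required for 50% inhibition of growth. TGI denotes the concentration required for complete inhibition of growth.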

Some test systems named below: M14 melanoma; SF-295 CNS; MALME-3M melanoma; LOX IMVI melanoma; SF-268 CNS; OVCAR-4 ovarian; HOP-62 NSCLC; HOP-92 NSCLC; IGROV1 ovarian.
Holding throughout (assay): DTP human tumour cell line panel, 48 h

The term TGI denotes the concentration at which net growth stops. A lower TGI goes with more potent growth arrest. Turning to `Cc1cc(N(CCC#N)CCC#N)ccc1N=Nc1ccc([N+](=O)[O-])cc1`, the TGI with M14 melanoma is more than 100 µM; in the test with SF-295 CNS it was more than 100 µM; in the test on MALME-3M melanoma it was more than 100 µM; with LOX IMVI melanoma it was 80.6 µM; in the test with SF-268 CNS, more than 100 µM; in the test with OVCAR-4 ovarian, 44.1 µM. For the same molecule, the concentration for total growth inhibition (TGI) in the test with HOP-62 NSCLC and in the test with HOP-92 NSCLC was more than 100 µM each time.
`Cc1cc(C)c2c(c1C)CN1CN2Cc2c(C)c(C)cc(C)c21`: the TGI in the test on M14 melanoma, with IGROV1 ovarian, in the test with SF-295 CNS, in the test on MALME-3M melanoma, in the test on LOX IMVI melanoma and in the test on SF-268 CNS was more than 100 µM each time. The TGI with OVCAR-4 ovarian, with HOP-62 NSCLC and with HOP-92 NSCLC was more than 100 µM throughout.
For the molecule `CC(=O)OCC1OC(n2cnc3c(I)nc(I)nc32)C(OC(C)=O)C1OC(C)=O` (stereo not drawn), the TGI in the test with M14 melanoma was determined as 31.6 µM; in the test on IGROV1 ovarian, 19.8 µM; in the test with SF-295 CNS, 35.1 µM; in the test on MALME-3M melanoma, 33.5 µM; with LOX IMVI melanoma, 29.4 µM; in the test with SF-268 CNS it was 28.5 µM. Also, the TGI was 17.4 µM in the test with OVCAR-4 ovarian, 34.4 µM with HOP-62 NSCLC and 9.16 µM with HOP-92 NSCLC.
Turning to `CC1(C)CC[C@]2(C(=O)O)CCC3(C)C(=CCC4[C@@]5(C)CC[C@H](OC6OCC(O)C(O)C6OC6OC(CO)C(O)C(O)C6O)C(C)(C)C5CC[C@]43C)C2C1` (stereo partly drawn), the TGI is 3.45 µM in the test on M14 melanoma; 5.23 µM with IGROV1 ovarian; 3.42 µM with SF-295 CNS; 3.54 µM in the test on MALME-3M melanoma; 4.18 µM in the test on LOX IMVI melanoma; 4.61 µM in the test with SF-268 CNS. Also, the TGI with OVCAR-4 ovarian is 3.05 µM; in the test with HOP-62 NSCLC, 4.16 µM; with HOP-92 NSCLC it was 3.69 µM.
As for `Nc1ncn([C@@H]2C=C(CO)C(O)C2O)c(=O)n1` (stereo partly drawn), the total growth inhibition concentration (TGI) in the test on M14 melanoma, with IGROV1 ovarian, in the test with SF-295 CNS, in the test with MALME-3M melanoma, in the test on LOX IMVI melanoma and in the test with SF-268 CNS was more than 100 µM throughout. Besides, the TGI in the test on OVCAR-4 ovarian, in the test with HOP-62 NSCLC and with HOP-92 NSCLC was more than 100 µM throughout.
As usually defined, the GI50 is the concentration at which growth is held to half of that of the control. In the case of `CC/C(=C(/CC)c1ccc(OP(=O)([O-])[O-])cc1)c1ccc(OP(=O)([O-])[O-])cc1.N.N.N.N.[Pt+4].[Pt+4]`, the GI50 was 1630 nM with M14 melanoma; 5.36 µM in the test with IGROV1 ovarian; 1.91 µM in the test with SF-295 CNS; 2.13 µM with MALME-3M melanoma; 2.08 µM in the test on LOX IMVI melanoma; 1730 nM in the test with SF-268 CNS. Besides, the GI50 with OVCAR-4 ovarian is 1.95 µM; in the test on HOP-62 NSCLC it was 1.75 µM; in the test on HOP-92 NSCLC, 3.43 µM. Also, the TGI with M14 melanoma stood at 6.87 µM; with IGROV1 ovarian, 53.6 µM; in the test with SF-295 CNS, 12.2 µM; with MALME-3M melanoma, 6.02 µM; in the test with LOX IMVI melanoma, 11.9 µM; with SF-268 CNS, 16.6 µM. Further, the concentration for total growth inhibition (TGI) in the test with OVCAR-4 ovarian amounted to 7.54 µM; with HOP-62 NSCLC, 13.6 µM; in the test with HOP-92 NSCLC, 8.93 µM.
In the case of `CCN1CCC(O)(c2ccccc2)C(C(=O)c2ccccc2)C1` (stereo not drawn), the TGI with M14 melanoma is 34.4 µM; in the test on IGROV1 ovarian, more than 100 µM; in the test with SF-295 CNS, more than 100 µM; in the test on MALME-3M melanoma, 38.4 µM; in the test on LOX IMVI melanoma it was more than 31.6 µM; in the test on SF-268 CNS, more than 31.6 µM. Moreover, the TGI in the test with OVCAR-4 ovarian was 32.8 µM; with HOP-62 NSCLC it was more than 100 µM; in the test on HOP-92 NSCLC, 36.1 µM.
Consider `O=[N+]([O-])c1ccc(N=Nc2c(O)[nH]c3ccc(Br)cc23)c([N+](=O)[O-])c1`, for which the TGI in the test on M14 melanoma is 21.2 µM; in the test with IGROV1 ovarian, 45.7 µM; with SF-295 CNS, 14.8 µM; in the test on MALME-3M melanoma, 15 µM; with LOX IMVI melanoma it was 3.17 µM; with SF-268 CNS, 16.6 µM. In addition, the figures for the TGI in the test on HOP-62 NSCLC and with HOP-92 NSCLC were 21 µM and 5.1 µM, respectively.
For the molecule `COc1ccc(C(=O)Nc2ccccc2C#N)cc1`, the TGI with IGROV1 ovarian, with SF-295 CNS, in the test with MALME-3M melanoma, with LOX IMVI melanoma, in the test on SF-268 CNS and in the test with OVCAR-4 ovarian was more than 100 µM in each case. Moreover, the total growth inhibition concentration (TGI) in the test on HOP-62 NSCLC and in the test on HOP-92 NSCLC was more than 100 µM throughout.
Consider `COc1ccc(C(=O)Nc2ccccc2)cc1[N+](=O)[O-]`, for which the TGI in the test with M14 melanoma, with IGROV1 ovarian, in the test on SF-295 CNS, in the test with MALME-3M melanoma, with LOX IMVI melanoma and with SF-268 CNS was more than 100 µM in each case. The total growth inhibition concentration (TGI) in the test with HOP-62 NSCLC is more than 100 µM.
`CCOC(=O)C1=C(O)CSC1=Nc1ccc(N=C2SCC(O)=C2C(=O)OCC)cc1`: the TGI in the test with M14 melanoma was determined as 52.5 µM; with IGROV1 ovarian, 60.6 µM; with SF-295 CNS, 63.1 µM; in the test with MALME-3M melanoma, 40.4 µM; with LOX IMVI melanoma, 32.1 µM; in the test on SF-268 CNS, 52.4 µM. Besides, the TGI in the test on OVCAR-4 ovarian is 94.8 µM; with HOP-62 NSCLC, 65.9 µM; with HOP-92 NSCLC, 64 µM.
Regarding `COc1ccc(Nc2nc3c(N)cc(C(F)(F)F)cc3nc2-c2ccccc2)cc1`, the TGI with M14 melanoma, with IGROV1 ovarian, in the test with SF-295 CNS, with MALME-3M melanoma, in the test on LOX IMVI melanoma and in the test with SF-268 CNS was more than 100 µM in each case. In addition, the TGI in the test with OVCAR-4 ovarian, in the test with HOP-62 NSCLC and in the test with HOP-92 NSCLC was more than 100 µM throughout.
For the molecule `CN(C)c1ccc(N=C(C#N)c2nc(N)nc(N3CCOCC3)n2)cc1`, the GI50 with M14 melanoma is more than 100000 nM; in the test on IGROV1 ovarian it was 34 µM; in the test on SF-295 CNS, 15.9 µM; with MALME-3M melanoma it was 16.4 µM; with LOX IMVI melanoma, 22.1 µM; in the test on OVCAR-4 ovarian, 46.6 µM. Moreover, the GI50 in the test with HOP-62 NSCLC was 55.2 µM; in the test with HOP-92 NSCLC, 28.3 µM. The total growth inhibition concentration (TGI) with M14 melanoma was more than 100 µM; with IGROV1 ovarian, more than 100 µM; with SF-295 CNS it was 31.3 µM; in the test on MALME-3M melanoma it was 49.4 µM; in the test with LOX IMVI melanoma, 53.5 µM; with OVCAR-4 ovarian, more than 100 µM. The TGI in the test with HOP-62 NSCLC and in the test on HOP-92 NSCLC was more than 100 µM in each case.
